Results on three molecules are retold here after patent US4871723A, “Method for treating psoriasis by externally administering to a patient a pharmaceutical composition containing active-type vitamin D” (priority 1984, dated 1989).

Like-named read-outs stand apart in the source and are kept apart here.

Data set [1] concerns psoriasis vulgaris. The data set is described as follows: therapeutic effect of ointment on psoriasis vulgaris of a person. Also noted: key to degree of severity: 4: very serious; 3: serious; 2: medium; 1: light; 0: disappeared. It counts as in vivo. As to the method:
(i) A suitable amount of 1α,24(R)-dihydroxycholecalciferol was dissolved in diisopropyl adipate, and the solution was uniformly mixed with white vaseline to form an ointment. The mixing ratio of diisopropyl adipate to white vaseline was always maintained at 1:4 by weight, and the concentration of 1α,24(R)-dihydroxycholecalciferol in the ointment was adjusted to 400 micrograms/30 mg, 40 micrograms/30 mg, and 4 micrograms/30 mg.
(ii) Each of the three ointment thus prepared was applied to the site of psoriasis vulgaris of a person, and their therapeutic effects were evaluated. Specifically, ±he ointment having a 1α,24(R)-(OH)2 -D3 concentration of 400 micrograms/30 mg was applied twice daily each in an amount of 30 mg to psoriasis vulgaris at the lower part of the right femur (diseased part A). The ointment having a 1α,24(R)-(OH)2 -D3 concentration of 40 micrograms/[…] was applied twice a day each in an amount of 30 mg to psoriasis vulgaris at the lower part of the left femur (diseased part B). The ointment having a 1α,24(R)-(OH concentration of 4 micrograms/30 mg was applied twice a day each in an amount of 30 mg to psoriasis vulgaris at the middle part of the right femur (the diseased part C).
The therapeutic effects were evaluated on a scale of 5 grades as follows: […]

Data set [2] has as its system psoriasis. The settings on record: clinical data, cited from earlier work.
A short description of data set [3]: amount of vitamin D3 in femoral muscles of rats 2 hours after ointment application or oral administration. It counts as in vivo, male Wistar-strain rats. As to the method: (ii) Hair was removed from the femoral parts of five male Wistar-strain rats (body weight 220 to 230 g), and 100 mg of the ointment prepared in (i) was well rubbed into the hair-removed part of each animal. Two hours later, the rats were sacrificed, and the skin at the ointment-administeredsite was carefully removed and the muscles inside were taken out.

The mark [4] stands for this setting: control group, oral 0.5 microgram.
Setting [5] is: ointment-applied group, 100 mg ointment (5 micrograms/g).

In the case of `C=C1/C(=C\C=C2/CCC[C@]3(C)[C@@H]([C@H](C)CC[C@@H](O)C(C)C)CC[C@@H]23)C[C@@H](O)C[C@@H]1O` [1α,24(R)-(OH)2 -D3, 1α,24(R)-dihydroxycholecalciferol], the relapse of lesion result in data set [1] (after more than 30 days from stopping of drug application, diseased parts A to C) is “no relapse of lesion was noted”. Moreover, the “therapeutic effect on psoriasis vulgaris” value in data set [1] (external application, ointment) is recorded as “good therapeutic effect”. In addition, the “improvement of diseased parts” value in data set [1] (five days after beginning of treatment, diseased parts A to C (400, 40, 4 micrograms/30 mg, twice daily), original severity 4) is reported as “an improvement was observed in all cases”. In data set [1] (ten days, all cases cured, diseased parts A to C (400, 40, 4 micrograms/30 mg, twice daily), original severity 4), this molecule returned a degree of severity of 0.
On to `C=C1/C(=C\C=C2/CCC[C@]3(C)[C@@H]([C@H](C)CCCC(C)(C)O)CC[C@@H]23)C[C@@H](O)C[C@@H]1O` [1α,25-(OH)2 --D3, 1α,25-dihydroxycholecalciferol], for which the “effectiveness for the treatment of psoriasis” value in data set [2] (external application) and in data set [2] (oral administration) was “effective” each time.
On to `C=C1/C(=C\C=C2/CCC[C@]3(C)[C@@H]([C@H](C)CCCC(C)C)CC[C@@H]23)C[C@@H](O)C[C@@H]1O` [Example 1α-OH--D3, 1α-hydroxycholecalciferol], for which, in data set [3] (setting [4]), the “Amounts in the femoral muscles, 1st time (5 rats)” value was 103; the “Amounts in the femoral muscles, 2nd time (5 rats)” value came to 98; the “Amounts in the femoral muscles, 3rd time (5 rats)” value worked out at 126. For the same molecule, in data set [3] (setting [5]), the “Amounts in the femoral muscles, 1st time (5 rats)” value turned out to be 441; the “Amounts in the femoral muscles, 2nd time (5 rats)” value was 607; the “Amounts in the femoral muscles, 3rd time (5 rats)” value was determined as 588. For the same molecule, the “effectiveness for the treatment of psoriasis” value in data set [2] (oral administration) is listed as “effective”.
